Experimental data taken from patent US20250281462A1, “THERAPEUTICALLY EFFECTIVE ORAL ADMINISTRATION OF A 2 ARYLBENZIMIDAZOLE” (Tranquis Therapeutics, Inc., priority 2021, published 2025).
“Also recorded” adds a separate entry of the source.

What was measured:
PGC-1α = PGC-1α protein expression in BV2 cells (Western blot); assay type: cell-based, murine; details: 20 μM, 24 hours
Description: Frozen BV2 murine microglia cells were thawed and propagated in complete media (RPMI, 10% heat-inactivated FBS, 1% L-glutamine, 1% Pen-Strep) until the growth rate reached log phase. For protein expression analysis, DMSO (1:1000 final dilution) or TQS-168 in DMSO (1:1000 final dilution) at 20 μM was added to cell cultures. After 24 hours stimulation, supernatant was discarded and cell lysis buffer (Cell Signal) was added to adherent cells to extract protein. Total protein was quantified and normalized across all samples by BCA assays. Two replicates of untreated cultures and three replicates of TQS-168-treated cultures were investigated, with each replicate containing lysates from 5,000,000 BV2 myeloid cells. PGC1α expression was detected by Western Blot using an anti-PGC-1α antibody (SC13067, Santa Cruz Biotechnology, 1:500 dilution). Anti-[…] antibody (SC8432, Santa Cruz Biotechnology, 1:2000 dilution) was used to quantify beta-actin, a housekeeping gene whose expression level is not known to be affected by TQS-168. […] Total protein was quantified and normalized across all samples by BCA assays. PGC-1α was subsequently detected by Western Blot using an anti-PGC-1α antibody (SC13067, Santa Cruz Biotechnology, 1:500 dilution). β-actin was detected with an anti-β-actin antibody (SC8432, Santa Cruz Biotechnology, 1:2000 dilution). […]

TNF-α = assay: LPS-induced TNF-α production by primary human myeloid cells (PBMC, CBA); assay type: cell-based; details: 100 ng/mL LPS, 24 hours
Description: Peripheral blood mononuclear cells (PBMC) from 4 different healthy volunteers were used in this study. Fresh blood samples were collected at Stanford Blood Center and processed for PBMC isolation with Ficoll gradient. PBMC samples were stored in liquid nitrogen at […] for subsequent analysis of TNF-α production. For TNF-α stimulation, frozen PBMC samples were thawed and rested at 37° C. before cells were stimulated with 100 ng/ml of LPS for 24 hours. DMSO (1:1000 final dilution) or TQS-168 in DMSO (1:1000 final dilution) at various concentrations was added to cell cultures of LPS-stimulated PBMC to evaluate the effects of T-168 on TNF-α production by human primary myeloid cells. After 24 hours stimulation, supernatant samples from various conditions were collected and TNF-α concentrations in the supernatants analyzed with cytometric bead array (CBA) assay per protocols from BD Biosciences. TNF-α was quantified by median fluorescent intensity reading (MFI). Samples were analyzed directly after staining with LSRII flow cytometer.

[1] = Plasma concentrations after single intravenous dose in rats; assay type: in vivo; details: male, Sprague Dawley, rat, 0.5 mg/kg intravenous
Description: A total of 3 male, 7-9 week old, Sprague Dawley rats from Vital River were administered a single intravenous dose of TQS-168 at 0.5 mg/kg, in a volume of 0.5 mL/kg. TQS-168 was prepared in solution of 31.6% DMAC+36.8% ethanol+31.6% propylene glycol.
Blood samples were collected at 0.5, 3, 10, 30, 60, 120, 240, 480 and 720 minutes after a single dose of TQS-168 and then processed. Blood samples were collected via saphenous vein puncture into a K2EDTA tube, centrifuged at 4° C. at 4600 rpm for 5 minutes, and plasma collected and stored at less than −20° C. prior to being analyzed by LC-MS for TQS-168 concentrations. Data are presented as concentrations of TQS-168 (ng/mL) in plasma and graphed in FIG. 15 (individual rats) and 16 (average).

older mice = details: oral 25 mg/kg; cited from earlier work
[2] = Phase 1 multiple dose trial, plasma pharmacokinetics (Part 2); details: for Tmax: median
[3] = human plasma, Regimen I: 120 mg TQS-168 SDD QD 7 days, fasted, geometric mean
[4] = human plasma, Regimen J 90 mg SDD fed, Day 1
[5] = human plasma, Regimen J 90 mg SDD fed, Day 7
[6] = human plasma, Regimen J: 90 mg TQS-168 SDD QD 7 days, fed, geometric mean
[7] = human plasma, Regimen K: 300 mg TQS-168 SDD QD 7 days, fed, geometric mean

## CC(C)(C)c1ccc(-c2nc3ccccc3[nH]2)cc1 [TQS-168, 2-(4-tert-butylphenyl)-1H-benzimidazole]
PGC-1α
  induction of PGC-1α protein expression: induces PGC-1α protein expression; also recorded: induction of PGC-1α protein expression
TNF-α; 5 μM
  suppression of TNFα production vs no treatment: statistically significant suppression
TNF-α; 20 μM
  suppression of TNFα production vs no treatment: statistically significant suppression
[1]
  half-life: 9.72 min
[1]; read-out: clearance rate (converted)
  clearance: 155 mL/min/kg
Older mice
  behavioral dysfunction: alleviate behavioral dysfunction
  inflammatory cytokine production in microglia: inhibit inflammatory cytokine production in microglia
  metabolic dysfunction in microglia: suppress metabolic dysfunction in microglia
  systemic inflammation: suppress systemic inflammation
[2]; Regimen J, 90 mg TQS-168 SDD QD, fed, Day 7, geometric mean
  T1/2: 4.46 h
[2]; Regimen K, 300 mg TQS-168 SDD QD, fed, Day 7, geometric mean
  T1/2: 5.67 h
[2]; human plasma, Regimen I: 120 mg TQS-168 SDD QD 7 days, fasted, Day 1, geometric mean
  AUC(0-tau): 438 ng·h/mL
[2]; human plasma, Regimen I: 120 mg TQS-168 SDD QD 7 days, fasted, Day 7, geometric mean
  AUC(0-tau): 692 ng·h/mL
[2]; [3]
  accumulation ratio based on AUC(0-tau): 1.58
  accumulation ratio based on Cmax: 1.59
[2]; [4]
  maximum individual AUC(0-tau) as share of the AUC(0-24) exposure limit: 10.9%
  maximum individual Cmax as share of the Cmax exposure limit: 21.6%
[2]; [5]
  maximum individual AUC(0-tau) as share of the AUC(0-24) exposure limit: 19.5%
  maximum individual Cmax as share of the Cmax exposure limit: 30.9%
[2]; human plasma, Regimen J: 90 mg TQS-168 SDD QD 7 days, fed, Day 1, geometric mean
  AUC(0-tau): 223 ng·h/mL
[2]; human plasma, Regimen J: 90 mg TQS-168 SDD QD 7 days, fed, Day 7, geometric mean
  AUC(0-tau): 227 ng·h/mL
[2]; [6]
  accumulation ratio based on AUC(0-tau): 1.24
  accumulation ratio based on Cmax: 1.03
[2]; human plasma, Regimen K: 300 mg TQS-168 SDD QD 7 days, fed, Day 1, geometric mean
  AUC(0-tau): 1210 ng·h/mL
[2]; human plasma, Regimen K: 300 mg TQS-168 SDD QD 7 days, fed, Day 7, geometric mean
  AUC(0-tau): 2010 ng·h/mL
[2]; [7]
  accumulation ratio based on AUC(0-tau): 1.66
  accumulation ratio based on Cmax: 1.74
[2]; male, human, in vivo, 90 mg, AUC(0-tau), Regimen J, 90 mg TQS-168 SDD QD, fed, Day 1, tau = 24 h, geometric mean
  AUC: 223 ng·h/mL
[2]; male, human, in vivo, 90 mg, AUC(0-tau), Regimen J, 90 mg TQS-168 SDD QD, fed, Day 7, tau = 24 h, geometric mean
  AUC: 227 ng·h/mL
[2]; male, human, in vivo, 90 mg, AUC(0-tau), human plasma, Regimen J: 90 mg TQS-168 SDD QD 7 days, fed, Day 1, geometric mean
  AUC: 223 ng·h/mL
[2]; male, human, in vivo, 90 mg, AUC(0-tau), human plasma, Regimen J: 90 mg TQS-168 SDD QD 7 days, fed, Day 7, geometric mean
  AUC: 227 ng·h/mL
[2]; male, human, in vivo, 90 mg, Cmax, Regimen J, 90 mg TQS-168 SDD QD, fed, Day 1, plasma, geometric mean
  Cmax: 47.4 ng/mL
[2]; male, human, in vivo, 90 mg, Cmax, Regimen J, 90 mg TQS-168 SDD QD, fed, Day 7, plasma, geometric mean
  Cmax: 48.8 ng/mL
[2]; male, human, in vivo, 90 mg, Cmax, human plasma, Regimen J: 90 mg TQS-168 SDD QD 7 days, fed, Day 1
  Cmax: 190 nM
[2]; male, human, in vivo, 90 mg, Cmax, human plasma, Regimen J: 90 mg TQS-168 SDD QD 7 days, fed, Day 1, geometric mean
  Cmax: 47.4 ng/mL
[2]; male, human, in vivo, 90 mg, Cmax, human plasma, Regimen J: 90 mg TQS-168 SDD QD 7 days, fed, Day 7
  Cmax: 190 nM
[2]; male, human, in vivo, 90 mg, Cmax, human plasma, Regimen J: 90 mg TQS-168 SDD QD 7 days, fed, Day 7, geometric mean
  Cmax: 48.8 ng/mL
[2]; male, human, in vivo, 90 mg, Tmax (median), Regimen J, 90 mg TQS-168 SDD QD, fed, Day 7, plasma
  Tmax: 3 h
[2]; male, human, in vivo, 90 mg, Tmax, human plasma, Regimen J: 90 mg TQS-168 SDD QD 7 days, fed, Day 1
  Tmax: 3 h
[2]; male, human, in vivo, 90 mg, Tmax, human plasma, Regimen J: 90 mg TQS-168 SDD QD 7 days, fed, Day 7
  Tmax: 3 h
[2]; male, human, in vivo, 90 mg, maximum individual AUC(0-tau), human plasma, Regimen J 90 mg SDD fed, Day 1
  AUC: 299 ng·h/mL
[2]; male, human, in vivo, 90 mg, maximum individual AUC(0-tau), human plasma, Regimen J 90 mg SDD fed, Day 7
  AUC: 535 ng·h/mL
[2]; male, human, in vivo, 90 mg, maximum individual Cmax, human plasma, Regimen J 90 mg SDD fed, Day 1
  Cmax: 65.8 ng/mL
[2]; male, human, in vivo, 90 mg, maximum individual Cmax, human plasma, Regimen J 90 mg SDD fed, Day 7
  Cmax: 94.1 ng/mL
[2]; male, human, in vivo, 120 mg
  half-life: 7.7 h
[2]; male, human, in vivo, 120 mg, AUC(0-tau), human plasma, Regimen I: 120 mg TQS-168 SDD QD 7 days, fasted, Day 1, geometric mean
  AUC: 438 ng·h/mL
[2]; male, human, in vivo, 120 mg, AUC(0-tau), human plasma, Regimen I: 120 mg TQS-168 SDD QD 7 days, fasted, Day 7, geometric mean
  AUC: 692 ng·h/mL
[2]; male, human, in vivo, 120 mg, Cmax, human plasma, Regimen I: 120 mg TQS-168 SDD QD 7 days, fasted, Day 1
  Cmax: 690 nM
[2]; male, human, in vivo, 120 mg, Cmax, human plasma, Regimen I: 120 mg TQS-168 SDD QD 7 days, fasted, Day 1, geometric mean
  Cmax: 172 ng/mL
[2]; male, human, in vivo, 120 mg, Cmax, human plasma, Regimen I: 120 mg TQS-168 SDD QD 7 days, fasted, Day 7
  Cmax: 1090 nM
[2]; male, human, in vivo, 120 mg, Cmax, human plasma, Regimen I: 120 mg TQS-168 SDD QD 7 days, fasted, Day 7, geometric mean
  Cmax: 273 ng/mL
[2]; male, human, in vivo, 120 mg, Tmax, human plasma, Regimen I: 120 mg TQS-168 SDD QD 7 days, fasted, Day 1
  Tmax: 1 h
[2]; male, human, in vivo, 120 mg, Tmax, human plasma, Regimen I: 120 mg TQS-168 SDD QD 7 days, fasted, Day 7
  Tmax: 0.75 h
[2]; male, human, in vivo, 300 mg, AUC(0-tau), Regimen K, 300 mg TQS-168 SDD QD, fed, Day 1, tau = 24 h, geometric mean
  AUC: 1210 ng·h/mL
[2]; male, human, in vivo, 300 mg, AUC(0-tau), Regimen K, 300 mg TQS-168 SDD QD, fed, Day 7, tau = 24 h, geometric mean
  AUC: 2010 ng·h/mL
[2]; male, human, in vivo, 300 mg, AUC(0-tau), human plasma, Regimen K: 300 mg TQS-168 SDD QD 7 days, fed, Day 1, geometric mean
  AUC: 1210 ng·h/mL
[2]; male, human, in vivo, 300 mg, AUC(0-tau), human plasma, Regimen K: 300 mg TQS-168 SDD QD 7 days, fed, Day 7, geometric mean
  AUC: 2010 ng·h/mL
[2]; male, human, in vivo, 300 mg, Cmax, Regimen K, 300 mg TQS-168 SDD QD, fed, Day 1, plasma, geometric mean
  Cmax: 229 ng/mL
[2]; male, human, in vivo, 300 mg, Cmax, Regimen K, 300 mg TQS-168 SDD QD, fed, Day 7, plasma, geometric mean
  Cmax: 400 ng/mL
[2]; male, human, in vivo, 300 mg, Cmax, human plasma, Regimen K: 300 mg TQS-168 SDD QD 7 days, fed, Day 1
  Cmax: 910 nM
[2]; male, human, in vivo, 300 mg, Cmax, human plasma, Regimen K: 300 mg TQS-168 SDD QD 7 days, fed, Day 1, geometric mean
  Cmax: 229 ng/mL
[2]; male, human, in vivo, 300 mg, Cmax, human plasma, Regimen K: 300 mg TQS-168 SDD QD 7 days, fed, Day 7
  Cmax: 1600 nM
[2]; male, human, in vivo, 300 mg, Cmax, human plasma, Regimen K: 300 mg TQS-168 SDD QD 7 days, fed, Day 7, geometric mean
  Cmax: 400 ng/mL
[2]; male, human, in vivo, 300 mg, Tmax (median), Regimen K, 300 mg TQS-168 SDD QD, fed, Day 7, plasma
  Tmax: 4 h
[2]; male, human, in vivo, 300 mg, Tmax, human plasma, Regimen K: 300 mg TQS-168 SDD QD 7 days, fed, Day 1
  Tmax: 2 h
[2]; male, human, in vivo, 300 mg, Tmax, human plasma, Regimen K: 300 mg TQS-168 SDD QD 7 days, fed, Day 7
  Tmax: 4 h
[2]; male, human, in vivo, po, 90 mg, Tmax (median), Regimen J, 90 mg TQS-168 SDD powder for oral suspension QD, fed, Day 1, plasma
  Tmax: 3 h
[2]; male, human, in vivo, po, 300 mg, Tmax (median), Regimen K, 300 mg TQS-168 SDD powder for oral suspension QD, fed, Day 1, plasma
  Tmax: 2 h
